Where two headings read alike, the source gives them in different places.
Columns and labels:
[1] = system: HeLa cervical adenocarcinoma cells; test: MTT antiproliferative assay, HeLa; assay type: cell-based; settings: Homo sapiens
Procedure: (§1) Human T-cell leukemia cell line Jurkat (ATCC TIB-152, E6-1 clone) was cultured in RPMI-1640 (Invitrogen) supplemented with 10% FBS (Invitrogen), 100 mg/L penicillin G, 100 mg/L streptomycin, 1.0 mM sodium pyruvate, 1.5 g/L sodium bicarbonate, and 4.5 g/L glucose (all from Sigma). Human cervical cancer cell line HeLa (ATCC S3) was cultured in DMEM (Invitrogen) supplemented with 10% FBS, 100 mg/L penicillin G, and 100 mg/L streptomycin. MCF-7 (human mammary carcinoma) cells were cultured in DMEM supplemented with 1.0 mM sodium pyruvate, 1% GlutaMax™-1 (Invitrogen), 100 μg/mL penicillin, 100 μg/mL streptomycin, and 10% FBS. Human uterine sarcoma MES-SA and MES-SA/Dx5 cells were cultured in RPMI-1640 medium supplemented with 10% FBS, 100 mg/L penicillin G and 100 mg/L streptomycin. All cells were incubated at 37° C. in a humidified atmosphere with 5% CO2. The other cell lines were maintained in a similar fashion as previously described.
(§2) To evaluate antiproliferative properties of the compounds of Formula I, mitochondrial dehydrogenase activities were measured using the MTT assay. The cell lines were prepared by trypsinizing and seeding […] cells per well into microplates. All compounds were reconstituted in dimethyl sulfoxide (DMSO) at a concentration of either 100 mM or 25 mM prior to treatment. The cells were grown for 24 hrs before treatment at concentrations ranging from 0.004 to 100 microM and incubated for 48 hrs in 200 microL media. 20 microL of MTT reagent in serum free medium (5 mg/mL) was added to each well and incubated further for 2 hrs. Media was removed and the resulting formazan crystals were re-solubilized in 100 microL of DMSO and the optical density (OD) was measured using a Thermomax Molecular Device plate reader at a wavelength of 490 nm. The experiments were performed in quadruplicate and repeated at least twice for each compound per cell line. Cells treated with 0.1% DMSO were used as a negative control, while phenyl arsine oxide (PAO) was used as a positive killing control.
(§3) Human cancer cell lines were obtained from the American Type Culture Collection (ATCC, Manassas, Va., USA), the European Collection of Cell Culture (ECACC, Salisbury, UK) and the Deutsche Sammlung von Mikroorganismen and Zellkulturen (DSMZ, Braunschweig, Germany). Human cervical adenocarcinoma HeLa cells were cultured in DMEM supplemented with 10% fetal bovine serum (FBS). Human mammary carcinoma MCF-7 cells were cultured in RPMI supplemented with 10% FBS. The U87 and U373 cells were cultured in DMEM culture medium (Lonza code 12-136F, Vervier, Belgium), while the SKMEL-28 and A549 cells were cultured in RPMI culture medium (Lonza; code 12-115F) supplemented with 10% heat-inactivated FBS (Lonza, FBS South America code DE14-801F). […] All cell lines were cultured in T25 flasks, maintained and grown at 37° C., 95% humidity, 5% CO2.
(§4) To evaluate antiproliferative properties of the synthesized compounds, the MTT assay was used. The cell lines were assessed by trypsinizing each cell line and seeding 4×10^3 cells per well into 96-well plates. All compounds were dissolved in DMSO at a concentration of either 100 mM or 50 mM prior to cell treatment. The cells were grown for 24 h and then treated with compounds at concentrations ranging from 0.04 to 100 μM and incubated for 48 h in 200 μL media. 20 μL of MTT reagent in serum free medium (5 mg/mL) was added to each well and incubated further for 2 h. Media was removed, and the resulting formazan crystals were re-solubilized in 200 μL of DMSO. A490 was measured using a Thermomax Molecular Device plate reader. The experiments were performed in quadruplicate and repeated at least twice for each compound per cell line. Cells treated with 0.1% DMSO were used as a control, and 1 μM phenyl arsine oxide (PAO) was used as a positive killing control.

[2] = system: MCF-7 mammary gland adenocarcinoma cells; test: MTT antiproliferative assay, MCF-7; assay type: cell-based; settings: Homo sapiens
Procedure: as §1, §2, §3, §4

[3] = Table 5, 48 h, MTT, ± SD, read-out: cell viability GI50, HeLa
[4] = MCF7, Table 5, 48 h, MTT, ± SD, read-out: cell viability GI50, MCF-7
[5] = Table 1, 48 h treatment, MTT, ± SD, read-out: GI50 in vitro Values, HeLa
[6] = MCF7, Table 1, 48 h treatment, MTT, ± SD, read-out: GI50 in vitro Values, MCF-7

SMILES	GI50 [1, 3] [nM]	GI50 [2, 4] [nM]	GI50 [1, 5] [nM]	GI50 [2, 6] [nM]	also measured
O=C(c1ccccc1)c1[nH]c2[nH]c(=O)[nH]c(=O)c2c1-c1ccccc1 [Compound 2]	> 50000	> 50000			
O=C(c1ccccc1)c1[nH]c2[nH]c(-c3ccccc3)nc(=O)c2c1-c1ccccc1 [Compound 3, 6-Benzoyl-2-phenyl-5-phenyl-1H-pyrrolo[2,3-d]pyrimidin-4(7H)-one]	> 50000	> 50000			
O=C(c1ccccc1)c1[nH]c2[nH]c(-c3cccnc3)nc(=O)c2c1-c1ccccc1 [Compound 4]	> 50000	> 50000			
CCOC(=O)c1nc(=O)c2c(-c3ccccc3)c(C(=O)c3ccccc3)[nH]c2[nH]1 [Compound 7]	> 50000	> 50000			
CCOC(=O)CCc1nc(=O)c2c(-c3ccccc3)c(C(=O)c3ccccc3)[nH]c2[nH]1 [Compound 10, 6-Benzoyl-2-(2-ethoxycarbonylethyl)-5-phenyl-1H-pyrrolo[2,3-d]pyrimidin-4(7H)-one]	780 ± 50	930 ± 70			
CCCCc1nc(=O)c2c(-c3ccccc3)c(C(=O)c3ccccc3)[nH]c2[nH]1 [Compound 11, 6-Benzoyl-2-butyl-5-phenyl-1H-pyrrolo[2,3-d]pyrimidin-4(7H)-one]	340 ± 10	230 ± 10			
CCc1nc(=O)c2c(-c3ccccc3)c(C(=O)c3ccccc3)[nH]c2[nH]1 [Compound 12]	920 ± 110	1100 ± 100			
O=C(c1ccccc1)c1[nH]c2[nH]c(CF)nc(=O)c2c1-c1ccccc1 [Compound 14]	3000 ± 200	3200 ± 200			
O=C(c1ccccc1)c1[nH]c2[nH]c(C(F)F)nc(=O)c2c1-c1ccccc1 [Compound 15, 6-Benzoyl-2-(difluoromethyl)-5-phenyl-1H-pyrrolo[2,3-d]pyrimidin-4(7H)-one]	5100 ± 200	4200 ± 500			
O=C(c1ccccc1)c1[nH]c2[nH]c(C(F)(F)F)nc(=O)c2c1-c1ccccc1 [Compound 16, 6-Benzoyl-5-phenyl-2-(trifluoromethyl)-1H-pyrrolo[2,3-d]pyrimidin-4(7H)-one]	21500 ± 400	21100 ± 1100			
COc1ccc(C(=O)c2[nH]c3[nH]cnc(=O)c3c2-c2cc(Br)cc(Br)c2)cc1 [Rig10, 5-(3,5-Dibromophenyl)-6-(4-methoxybenzoyl)-1H-pyrrolo[2,3-d]pyrimidin-4(7H)-one]			300 ± 70	110 ± 35	
O=C(c1ccc(OCc2ccccc2)cc1)c1[nH]c2[nH]cnc(=O)c2c1-c1cc(Br)cc(Br)c1 [Rig11, 6-(4-(Benzyloxy)benzoyl)-5-(3,5-dibromophenyl)-1H-pyrrolo[2,3-d]pyrimidin-4(7H)-one]			400 ± 10	310 ± 10	
O=C(c1ccc(F)cc1)c1[nH]c2[nH]cnc(=O)c2c1-c1cc(Br)cc(Br)c1 [Rig13, 5-(3,5-Dibromophenyl)-6-(4-fluorobenzoyl)-1H-pyrrolo[2,3-d]pyrimidin-4(7H)-one]			6000 ± 1000	800 ± 10	
O=C(c1ccc(Br)cc1)c1[nH]c2[nH]cnc(=O)c2c1-c1cc(Br)cc(Br)c1 [Rig14, 6-(4-Bromobenzoyl)-5-(3,5-dibromophenyl)-1H-pyrrolo[2,3-d]pyrimidin-4(7H)-one]			2000 ± 1000	600 ± 100	
COc1ccc(C(=O)c2[nH]c3[nH]cnc(=O)c3c2-c2cc(OC)c(OC)c(OC)c2)cc1 [Rig19, 6-(4-Methoxybenzoyl)-5-(3,4,5-trimethoxyphenyl)-1H-pyrrolo[2,3-d]pyrimidin-4(7H)-one]					GI50 ([1]; 48 h, read-out: GI50 in vitro Values, HeLa): > 100000 nM; GI50 ([2]; MCF7, 48 h, read-out: GI50 in vitro Values, MCF-7): 7000 ± 1000 nM
O=C(c1ccccc1)c1[nH]c2[nH]cnc(=O)c2c1-c1cccc(Br)n1 [Rig30, 6-Benzoyl-5-(6-bromopyridin-2-yl)-1H-pyrrolo[2,3-d]pyrimidin-4(7H)-one]			150 ± 50	135 ± 75	
COc1cc(-c2c(C(=O)c3ccccc3)[nH]c3[nH]cnc(=O)c23)cc(I)c1OC [Rig31, 6-Benzoyl-5-(3-iodo-4,5-dimethoxyphenyl)-1H-pyrrolo[2,3-d]pyrimidin-4(7H)-one]			8000 ± 1000	40000 ± 4000	
COc1cc(-c2c(C(=O)c3ccccc3)[nH]c3[nH]cnc(=O)c23)cc(Br)c1OC [Rig32, 6-Benzoyl-5-(3-bromo-4,5-dimethoxyphenyl)-1H-pyrrolo[2,3-d]pyrimidin-4(7H)-one]			7000 ± 1000	10000 ± 5000	
O=C(c1ccccc1)c1[nH]c2[nH]cnc(=O)c2c1-c1cccc(Br)c1 [Rig33, 6-Benzoyl-5-(3-bromophenyl)-1H-pyrrolo[2,3-d]pyrimidin-4(7H)-one]			130 ± 50	60 ± 20	
O=C(c1ccccc1)c1[nH]c2[nH]cnc(=O)c2c1-c1cccc(Cl)c1 [Rig34, 6-Benzoyl-5-(3-chlorophenyl)-1H-pyrrolo[2,3-d]pyrimidin-4(7H)-one]			100 ± 70	60 ± 20	
O=C(c1ccccc1)c1[nH]c2[nH]cnc(=O)c2c1-c1cccc(I)c1 [Rig36, 6-Benzoyl-5-(3-iodophenyl)-1H-pyrrolo[2,3-d]pyrimidin-4(7H)-one]			200 ± 100	150 ± 60	
O=C(c1ccccc1)c1[nH]c2[nH]cnc(=O)c2c1-c1c(Cl)cccc1Cl [Rig40, 6-Benzoyl-5-(2,6-dichlorophenyl)-1H-pyrrolo[2,3-d]pyrimidin-4(7H)-one]			4880 ± 70	2200 ± 300	
O=C(c1ccccc1)c1[nH]c2[nH]cnc(=O)c2c1-c1cccnc1 [Rig41, 6-Benzoyl-5-(pyridin-3-yl)-1H-pyrrolo[2,3-d]pyrimidin-4(7H)-one]			888 ± 61	1260 ± 180	
O=C(c1ccccc1)c1[nH]c2[nH]cnc(=O)c2c1-c1cccc(O)c1 [Rig42, 6-Benzoyl-5-(3-hydroxyphenyl)-1H-pyrrolo[2,3-d]pyrimidin-4(7H)-one]			860 ± 60	1100 ± 120	
N#Cc1cccc(-c2c(C(=O)c3ccccc3)[nH]c3[nH]cnc(=O)c23)c1 [Rig43, 3-(6-Benzoyl-4-oxo-4,7-dihydro-1H-pyrrolo[2,3-d]pyrimidin-5-yl)benzonitrile]			187 ± 9	251 ± 17	
O=C(c1ccc(O)cc1)c1[nH]c2[nH]cnc(=O)c2c1-c1ccccc1 [Rig45, 6-(4-Hydroxybenzoyl)-5-phenyl-1H-pyrrolo[2,3-d]pyrimidin-4(7H)-one]			303 ± 5	261 ± 50	

Reference: patent US9334280B2, “Synthetic rigidin analogues as anticancer agents, salts, solvates and prodrugs thereof, and method of producing same” (New Mexico Technical Research Foundation, priority 2012, dated 2016)
